Test results: ChEMBL document CHEMBL1150205, “Justiciresinol, a new furanoid lignan from Justicia glauca” (1991)
≈ marks a conversion by molar mass, not a printed value.

Assays:
Assay type in all cases: functional
Settings in all cases: read-out: ED50 (the source's name)
MCF7 = assay: Cytotoxicity against human MCF7 cells
A549 = assay: Cytotoxicity against human A549 cells
HT-29 = assay: Cytotoxicity against human HT-29 cells

COc1cc([C@H]2OC[C@H](Cc3cc(OC)c(O)c(OC)c3)[C@@H]2CO)ccc1O [JUSTICIRESINOL]
EC50 (MCF7): 22.3 µg/mL (≈ 57.1 µM)
EC50 (A549): 31.3 µg/mL (≈ 80.2 µM)
EC50 (HT-29): 18.3 µg/mL (≈ 46.9 µM)
